Consider seven compounds from ChEMBL document CHEMBL2074346, “Mouse breast cancer resistance protein (Bcrp1/Abcg2) mediates etoposide resistance and transport, but etoposide oral availability is limited primarily by P-glycoprotein” (Cancer Res, 2003).

One series deals with T1, Broad substrate specificity ATP-binding cassette transporter ABCG2 (Mus musculus, UniProt Q7TMS5).
T1 sequence (Q7TMS5 whole entry): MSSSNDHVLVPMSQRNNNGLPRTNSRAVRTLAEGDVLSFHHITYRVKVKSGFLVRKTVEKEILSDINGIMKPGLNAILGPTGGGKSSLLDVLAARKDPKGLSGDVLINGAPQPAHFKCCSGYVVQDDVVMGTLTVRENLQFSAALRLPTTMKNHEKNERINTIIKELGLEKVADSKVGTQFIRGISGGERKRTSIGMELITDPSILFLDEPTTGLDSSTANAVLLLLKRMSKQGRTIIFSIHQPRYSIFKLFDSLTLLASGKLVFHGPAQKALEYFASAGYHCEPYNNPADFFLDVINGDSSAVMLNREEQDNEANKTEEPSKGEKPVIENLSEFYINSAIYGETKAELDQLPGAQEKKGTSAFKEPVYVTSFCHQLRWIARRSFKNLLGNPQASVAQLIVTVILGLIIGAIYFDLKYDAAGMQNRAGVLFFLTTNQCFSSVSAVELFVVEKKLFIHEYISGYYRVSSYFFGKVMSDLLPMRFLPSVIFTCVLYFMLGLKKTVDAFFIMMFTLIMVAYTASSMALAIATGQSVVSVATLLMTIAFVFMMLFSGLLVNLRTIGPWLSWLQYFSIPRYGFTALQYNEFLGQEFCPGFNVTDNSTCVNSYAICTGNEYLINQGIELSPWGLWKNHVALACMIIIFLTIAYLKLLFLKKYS
The experiment in a line: TP_TRANSPORTER: transepithelial transport (basal to apical) in BCRP-expressing MDCKII cells. It counts as functional, cell-based. Conditions: dog, mdck-ii.
For the compound `COc1cc([C@@H]2c3cc4c(cc3[C@@H](O[C@@H]3O[C@@H]5CO[C@@H](C)O[C@H]5[C@H](O)[C@H]3O)[C@H]3COC(=O)[C@H]23)OCO4)cc(OC)c1O` [ETOPOSIDE], the Activity entry is “substrate []”.

A further series addresses T1, Broad substrate specificity ATP-binding cassette transporter ABCG2. Put plainly: TP_TRANSPORTER: drug resistance in BCRP-expressing MEF3.8 cells.
Details: not given
It counts as functional, cell-based.
On to `C(=N\NC1=NCCN1)/c1c2ccccc2c(/C=N/NC2=NCCN2)c2ccccc12` [BISANTRENE], for which the Activity result was “substrate []”.
The same measure, in the same setting: for `COc1cccc2c1C(=O)c1c(O)c3c(c(O)c1C2=O)C[C@@](O)(C(=O)CO)C[C@@H]3O[C@H]1C[C@H](N)[C@H](O)[C@H](C)O1` [DOXORUBICIN] the value was “substrate []”.
For the compound `COc1cc([C@@H]2c3cc4c(cc3[C@@H](O[C@@H]3O[C@@H]5CO[C@@H](C)O[C@H]5[C@H](O)[C@H]3O)[C@H]3COC(=O)[C@H]23)OCO4)cc(OC)c1O` [ETOPOSIDE], the Activity entry was “substrate []”.
As for `O=C1c2c(O)ccc(O)c2C(=O)c2c(NCCNCCO)ccc(NCCNCCO)c21` [MITOXANTRONE], the Activity result is “substrate []”.
On to `COc1cc([C@@H]2c3cc4c(cc3[C@@H](O[C@@H]3O[C@@H]5CO[C@@H](c6cccs6)O[C@H]5[C@H](O)[C@H]3O)[C@H]3COC(=O)[C@H]23)OCO4)cc(OC)c1O` [TENIPOSIDE], for which the Activity result is “substrate []”.
On the same count and under the same terms, in the case of `CC[C@@]1(O)C(=O)OCc2c1cc1n(c2=O)Cc2cc3c(CN(C)C)c(O)ccc3nc2-1` [TOPOTECAN] it was “substrate []”.
Same read-out and setting: in the case of `CC[C@]1(O)C[C@H]2CN(CCc3c([nH]c4ccccc34)[C@@](C(=O)OC)(c3cc4c(cc3OC)N(C=O)[C@H]3[C@@](O)(C(=O)OC)[C@H](OC(C)=O)[C@]5(CC)C=CCN6CC[C@]43[C@@H]65)C2)C1` [VINCRISTINE] it was “substrate []”.
